Test results as given in publication PMC6211297 (Biochemistry, 2017).

Target: PglF (Campylobacter jejuni, UniProt Q0P9D4)
Experiment: X-ray crystal structure, […] Å
Type: binding
Details: ternary complex with NAD(H); 10 mM UDP, pH 6.0; active site

Chain of PglF (Q0P9D4 244-590): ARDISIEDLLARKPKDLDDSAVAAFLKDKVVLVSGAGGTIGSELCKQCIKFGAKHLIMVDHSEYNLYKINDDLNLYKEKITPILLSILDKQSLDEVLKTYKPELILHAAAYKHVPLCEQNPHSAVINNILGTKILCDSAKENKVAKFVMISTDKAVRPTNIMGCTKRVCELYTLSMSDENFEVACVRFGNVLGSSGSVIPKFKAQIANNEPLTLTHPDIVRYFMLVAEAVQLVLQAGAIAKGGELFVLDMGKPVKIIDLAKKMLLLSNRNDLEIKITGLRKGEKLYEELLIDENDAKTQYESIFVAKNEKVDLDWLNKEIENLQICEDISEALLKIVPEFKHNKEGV

O=c1ccn([C@@H]2O[C@H](COP(=O)(O)OP(=O)(O)O)[C@@H](O)[C@H]2O)c(=O)[nH]1 [UDP]
X-ray crystal structure, 2.0 Å: The first structure determined in this investigation was that of the PglF/NAD(H)/UDP ternary complex
